From ChEMBL document CHEMBL5365537, “Development of LM-41 and AF-2112, two flufenamic acid-derived TEAD inhibitors obtained through the replacement of the trifluoromethyl group by aryl rings” (Bioorg Med Chem Lett, 2023)
Active and inactive are the calls of the source. No cut-off for these calls is given here.

Assays:
[1] = biological target: Transcriptional enhancer factor TEF-3 (Homo sapiens) (UniProt Q15561); test: Binding affinity to TEAD4 (unknown origin) assessed as change in aggregation temperature at 25 uM by DSLS thermal shift assay
[2] = biological target: Transcriptional enhancer factor TEF-3 (Homo sapiens) (UniProt Q15561); test: Inhibition of TEAD4 in human MDA-MB-231 cells assessed as decrease in TEAD-dependent NF2 gene expression at 10 uM incubated for 24 hrs by RT-qPCR analysis; type: cell-based
[3] = biological target: Transcriptional enhancer factor TEF-3 (Homo sapiens) (UniProt Q15561); test: Inhibition of TEAD4 in human MDA-MB-231 cells assessed as decrease in TEAD-dependent CTGF gene expression at 10 uM incubated for 24 hrs by RT-qPCR analysis; type: cell-based
[4] = biological target: Transcriptional enhancer factor TEF-3 (Homo sapiens) (UniProt Q15561); test: Inhibition of TEAD4 in human MDA-MB-231 cells assessed as decrease in TEAD-dependent Cyr61 gene expression at 10 uM incubated for 24 hrs by RT-qPCR analysis; type: cell-based
[5] = biological target: Transcriptional enhancer factor TEF-3 (Homo sapiens) (UniProt Q15561); test: Inhibition of TEAD4 in human MDA-MB-231 cells assessed as decrease in TEAD-dependent Axl gene expression at 10 uM incubated for 24 hrs by RT-qPCR analysis; type: cell-based
MDA-MB-231 = test: Antimigratory activity against human MDA-MB-231 cells assessed as reduction in cell migration at 10 uM incubated for 48 hrs; type: functional, cell-based
[6] = biological target: Transcriptional enhancer factor TEF-3 (Homo sapiens) (UniProt Q15561); test: Binding affinity to TEAD4 (unknown origin) assessed as change in aggregation temperature at 25 uM by DSF assay

Sequence of Transcriptional enhancer factor TEF-3 (Homo sapiens) (Q15561 whole entry): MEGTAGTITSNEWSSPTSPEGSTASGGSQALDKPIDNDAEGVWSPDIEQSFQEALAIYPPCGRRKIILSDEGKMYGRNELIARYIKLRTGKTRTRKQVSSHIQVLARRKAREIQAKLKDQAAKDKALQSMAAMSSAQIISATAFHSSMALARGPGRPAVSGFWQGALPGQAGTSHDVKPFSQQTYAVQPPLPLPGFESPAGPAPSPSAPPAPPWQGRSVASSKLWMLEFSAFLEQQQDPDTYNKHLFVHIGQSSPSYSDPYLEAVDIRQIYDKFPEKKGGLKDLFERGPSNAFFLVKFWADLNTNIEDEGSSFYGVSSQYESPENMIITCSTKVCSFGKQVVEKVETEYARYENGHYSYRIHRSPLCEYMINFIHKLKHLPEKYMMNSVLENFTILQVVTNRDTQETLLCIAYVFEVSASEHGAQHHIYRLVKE

`O=C(O)c1ccc(F)cc1Nc1cccc(CCc2ccccc2)c1` was tested, and the deltaT [1] was 5.6 °C.

Compound `COc1ccccc1-c1cccc(Nc2cc(F)ccc2C(=O)O)c1` has a deltaT [1] of 1.3 °C.

In the case of `Cc1ccc(Nc2cccc(OCc3ccccc3)c2)c(C(=O)O)c1`, the inhibition [2] is reported as “Active”, the inhibition [3] is reported as “Active” and the inhibition [4] is reported as “inactive”. For the same compound, the inhibition [5] was “inactive”, the deltaT [1] was 4 °C and the Activity (MDA-MB-231) was “Active”.

In the case of `O=C(O)c1ccc(F)cc1Nc1cccc(-c2cccnc2)c1`, the deltaT [1] is reported as 0 °C.

`O=C(O)c1ccc(F)cc1Nc1cccc(-c2ccccc2)c1` was tested, and the inhibition [2] was “Active”, the inhibition [3] was “Active” and the inhibition [4] was “Active”. The inhibition [5] was “Active”, the deltaT [1] was 3.4 °C and the Activity (MDA-MB-231) was “Active”.

With `O=C(O)c1ccc(F)cc1Nc1cccc(-c2ccc(C(F)(F)F)cc2)c1` the deltaT [1] was 4.5 °C.

Work on `Cc1ccc(Nc2cc(F)ccc2C(=O)O)cc1OCc1ccccc1` yielded a deltaT [1] of 3.8 °C.

`O=C(O)c1ccccc1Nc1cccc(OCc2ccccc2)c1` gave a deltaT [1] of 2.9 °C.

`Cc1ccc(Nc2cc(F)ccc2C(=O)O)cc1` was tested, and the deltaT [1] was 4 °C.

For `O=C(O)c1ccc(F)cc1Nc1cccc(-c2cccc(Br)c2)c1`, the deltaT [1] was 3.9 °C.

Compound `O=C(O)c1ccc(F)cc1Nc1cccc(-c2cccc(F)c2)c1` has a deltaT [1] of 3.9 °C.

With `O=C(O)c1ccc(F)cc1Nc1cccc(OCc2ccccc2)c1` the inhibition [2] was “Active”, the inhibition [3] was “Active” and the inhibition [4] was “inactive”. For the same compound, the inhibition [5] was “inactive” and the deltaT [1] was 3.8 °C.

In the case of `COc1ccc(-c2cccc(Nc3cc(F)ccc3C(=O)O)c2)cc1`, the deltaT [1] is reported as 2.7 °C.

For `O=C(O)c1ccccc1Nc1cccc(-c2ccccc2)c1`, the deltaT [1] was 2.1 °C.

`O=C(O)c1cccnc1Nc1cccc(OCCc2ccccc2)c1` was tested, and the inhibition [2] was “inactive”, the inhibition [3] was “inactive” and the inhibition [4] was “inactive”. For the same compound, the inhibition [5] was “inactive” and the deltaT [6] was 3.6 °C.

In the case of `O=C(O)c1ccc(F)cc1Nc1cccc(-c2ccccc2C(F)(F)F)c1`, the deltaT [1] is reported as 2.5 °C.

`O=C(O)c1ccc(F)cc1Nc1cccc(COc2ccccc2)c1` was tested, and the deltaT [1] was 3 °C.

`O=C(O)c1ccc(F)cc1Nc1cccc(OCCc2ccccc2)c1` was tested, and the inhibition [2] was “Active”, the inhibition [3] was “Active” and the inhibition [4] was “Active”. The inhibition [5] was “Active”, the deltaT [1] was 5.1 °C and the Activity (MDA-MB-231) was “Active”.

For `O=C(O)c1ccc(F)cc1Nc1cccc(-c2cccc(Cl)c2)c1`, the deltaT [1] was 3.1 °C.

`O=C(O)c1cccnc1Nc1cccc(-c2cccc(C(F)(F)F)c2)c1` gave a deltaT [1] of 4.8 °C.

`O=C(O)c1ccccc1Nc1cccc(C(F)(F)F)c1` was tested, and the inhibition [2] was “inactive”, the inhibition [3] was “inactive” and the inhibition [4] was “inactive”. The inhibition [5] was “inactive” and the Activity (MDA-MB-231) was “inactive”.

`Cc1ccccc1Nc1cc(F)ccc1C(=O)O` gave a deltaT [1] of 2.2 °C.

Work on `O=C(O)c1ccc(F)cc1Nc1cccc(-c2cccc(C(F)(F)F)c2)c1` yielded a deltaT [1] of 6.2 °C.

`O=C(O)c1ccc(F)cc1Nc1cccc(-c2ccccn2)c1` showed a deltaT [1] of 1 °C.

With `Cc1ccc(C(=O)O)c(Nc2cccc(OCc3ccccc3)c2)c1` the deltaT [1] was 2.3 °C.

`O=C(O)c1ccc(F)cc1Nc1cccc(Cc2ccccc2)c1` gave a deltaT [1] of 3 °C.

With `O=C(O)c1cccnc1Nc1cccc(C(F)(F)F)c1` the inhibition [2] was “inactive”, the inhibition [3] was “inactive” and the inhibition [4] was “inactive”. For the same compound, the inhibition [5] was “inactive”.

For `COc1cccc(-c2cccc(Nc3cc(F)ccc3C(=O)O)c2)c1`, the deltaT [1] was 3.5 °C.

For `Cc1cccc(Nc2cc(F)ccc2C(=O)O)c1`, the deltaT [1] was 4.7 °C.

For `O=C(O)c1ccc(F)cc1Nc1ccccc1-c1cccs1`, the inhibition [2] was “inactive”, the inhibition [3] was “inactive” and the inhibition [4] was “inactive”. The inhibition [5] was “inactive” and the deltaT [1] was 5.5 °C.
